# Earlier results in publication PMC11604869, “Stereoselective block of the hERG potassium channel by the Class Ia antiarrhythmic drug disopyramide” (Cellular and Molecular Life Sciences: CMLS, 2024).
# Key:
# rat ventricular ITO = test system: rat ventricular ITO; parameters: method as in PMID 11327018; details: 100 μM
# [1] = parameters: method as in PMID 6740739
# rabbit ventricular ITO = test system: rabbit ventricular ITO; parameters: method as in PMID 9550298; details: 30 μM
# [2] = test system: rate corrected QT interval; parameters: method as in PMID 2439842; details: for effect on rate corrected QT interval: acute infusion, healthy human volunteers
# [3] = plasma
# hERG = test system: hERG; parameters: method as in PMID 12466236
structure (smiles),measurement,setting,value
"CC(C)N(CCC(C(N)=O)(c1ccccc1)c1ccccn1)C(C)C (racemic) [racemic disopyramide, 4-(diisopropylamino)−2-phenyl-2-(pyridin-2-yl) butanamide]",effect on rat ventricular ITO,rat ventricular ITO,no effect
same,therapeutic total plasma levels,[1],6 to 8 µM
same,reduction of rabbit ventricular ITO amplitude,rabbit ventricular ITO,~ 33%
CC(C)N(CC[C@@](C(N)=O)(c1ccccc1)c1ccccn1)C(C)C [R(−) disopyramide],effect on rate corrected QT interval,[2],not
same,unbound fractions,[3],0.338
CC(C)N(CC[C@](C(N)=O)(c1ccccc1)c1ccccn1)C(C)C [S(+) disopyramide],effect on rate corrected QT interval,[2],prolongation of the rate corrected QT interval
same,negative inotropic effect in humans,[2]; compared with R(−) disopyramide,smaller negative inotropic effect
same,unbound fractions,[3],0.208
CCCCN1CCCC[C@H]1C(=O)Nc1c(C)cccc1C [levobupivacaine],potency of IhERG inhibition relative to dextrobupivacaine,hERG,twofold
